Legend:
Assay type in all cases: in vivo
[1] = system: redroot pigweed (Amaranthus retroflexus, AMARE); assay: Pre-emerge test, greenhouse herbicide activity screening; details: pre-emerge, rated 14 days after application, 0 = no damage, 100 = complete death
Summary of the method: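 Plants grown in 10 cm pots of sandy loam mix received acetone-dissolved compounds through a moving flat-fan nozzle. Doses ranged from 15 to 1000 g ai/ha. Pre-emerge pots were seeded one day earlier, post-emerge pots 8–21 days earlier. Fourteen days on, each pot was graded 0–100 for damage.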

[2] = system: barnyardgrass (Echinochloa crus-galli, ECHCG); assay: as above; details: pre-emerge, rated 14 days after application, 0 = no damage, 100 = complete death
Summary of the method: (§1)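 Sandy loam pots; pre-emerge: sown 1 d pre-spray, surface-watered after, then bottom-watered. Post-emerge: sown 8–21 d before, 2–3 leaf stage, + 0.25% v/v NIS, bottom-watered. Acetone, 187 l/ha track spray, 15–1000 g ai/ha. 0–100 injury score, day 14.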

[3] = system: green foxtail (Setaria viridis, SETVI); assay: as above; details: pre-emerge, rated 14 days after application, 0 = no damage, 100 = complete death
Summary of the method: as §1

[4] = system: ivyleaf morningglory (Ipomoea hederacea, IPOHE); assay: as above; details: pre-emerge, rated 14 days after application, 0 = no damage, 100 = complete death
Summary of the method: as §1

[5] = system: johnsongrass (Sorghum halepense, SORHA); assay: as above; details: pre-emerge, rated 14 days after application, 0 = no damage, 100 = complete death
Summary of the method: as §1

[6] = system: lambsquarters (Chenopodium album, CHEAL); assay: as above; details: pre-emerge, rated 14 days after application, 0 = no damage, 100 = complete death
Summary of the method: as §1

[7] = system: large crabgrass (Digitaria sanguinalis, DIGSA); assay: as above; details: pre-emerge, rated 14 days after application, 0 = no damage, 100 = complete death
Summary of the method: as §1

[8] = system: sicklepod (Cassia obtusifolia, CASOB); assay: as above; details: pre-emerge, rated 14 days after application, 0 = no damage, 100 = complete death
Summary of the method: as §1

[9] = system: velvetleaf (Abutilon theophrasti, ABUTH); assay: as above; details: pre-emerge, rated 14 days after application, 0 = no damage, 100 = complete death
Summary of the method: as §1

[10] = system: field corn (Zea mays L., var. Dekalb 535, CORN); assay: Pre-emerge test, crop safety; details: pre-emerge, rated 14 days after application, 0 = no damage, 100 = complete death
Summary of the method: (§2)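 Rating: 0–100 visual injury, 14 DAA. Application: acetone, 187 l/ha, 15–1000 g ai/ha, flat-fan track sprayer with nozzle 40–45 cm above soil or canopy. Post-emerge runs used 0.25% v/v surfactant on 2–3 leaf plants.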

[11] = system: upland rice (Oryza sp., var. Tebonnet, RICE); assay: Pre-emerge test, crop safety; details: pre-emerge, rated 14 days after application, 0 = no damage, 100 = complete death
Summary of the method: as §2

[12] = system: barnyardgrass (Echinochloa crus-galli, ECHCG); assay: Post-emerge test, greenhouse herbicide activity screening; details: phytotoxicity rating 0-100 (0 no damage, 100 complete death), 14 days after application
Summary of the method: (§3)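 Applied at 15–1000 g ai/ha from acetone in 187 l/ha spray volume. Post-emergence applications included 0.25% v/v non-ionic surfactant and reached plants sown 8–21 days before. Pre-emergence applications were incorporated by surface watering. Efficacy or crop damage was rated on a 0–100 scale after 14 days.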

[13] = system: green foxtail (Setaria viridis, SETVI); assay: as above; details: phytotoxicity rating 0-100 (0 no damage, 100 complete death), 14 days after application
Summary of the method: as §3

[14] = system: ivyleaf morningglory (Ipomoea hederacea, IPOHE); assay: as above; details: phytotoxicity rating 0-100 (0 no damage, 100 complete death), 14 days after application
Summary of the method: as §3

[15] = system: johnsongrass (Sorghum halepense, SORHA); assay: as above; details: phytotoxicity rating 0-100 (0 no damage, 100 complete death), 14 days after application
Summary of the method: as §3

[16] = system: lambsquarters (Chenopodium album, CHEAL); assay: as above; details: phytotoxicity rating 0-100 (0 no damage, 100 complete death), 14 days after application
Summary of the method: as §3

[17] = system: large crabgrass (Digitaria sanguinalis, DIGSA); assay: as above; details: phytotoxicity rating 0-100 (0 no damage, 100 complete death), 14 days after application
Summary of the method: as §3

[18] = system: redroot pigweed (Amaranthus retroflexus, AMARE); assay: as above; details: phytotoxicity rating 0-100 (0 no damage, 100 complete death), 14 days after application
Summary of the method: as §3

[19] = system: sicklepod (Cassia obtusifolia, CASOB); assay: as above; details: phytotoxicity rating 0-100 (0 no damage, 100 complete death), 14 days after application
Summary of the method: as §3

[20] = system: velvetleaf (Abutilon theophrasti, ABUTH); assay: as above; details: phytotoxicity rating 0-100 (0 no damage, 100 complete death), 14 days after application
Summary of the method: as §3

[21] = system: field corn (Zea mays L., var. Dekalb 535, CORN); assay: Post-emerge test, crop safety; details: phytotoxicity rating 0-100 (0 no damage, 100 complete death), 14 days after application
Summary of the method: as §1

[22] = system: upland rice (Oryza sp., var. Tebonnet, RICE); assay: Post-emerge test, crop safety; details: phytotoxicity rating 0-100 (0 no damage, 100 complete death), 14 days after application
Summary of the method: as §1

COC(=O)C=CCOc1c(Cl)cc(F)c(-n2c(=O)cc(C(F)(F)F)n(C)c2=O)c1N [Compound 1-20]
Pre-emerge Herbicidal Activity AMARE (phytotoxicity rating, scale 0-100) ([1]; 63 g ai/ha): 100
Pre-emerge Herbicidal Activity AMARE (phytotoxicity rating, scale 0-100) ([1]; 250 g ai/ha): 100
Pre-emerge Herbicidal Activity ECHCG (phytotoxicity rating, scale 0-100) ([2]; 63 g ai/ha): 50
Pre-emerge Herbicidal Activity ECHCG (phytotoxicity rating, scale 0-100) ([2]; 250 g ai/ha): 100
Pre-emerge Herbicidal Activity SETVI (phytotoxicity rating, scale 0-100) ([3]; 63 g ai/ha): 80
Pre-emerge Herbicidal Activity SETVI (phytotoxicity rating, scale 0-100) ([3]; 250 g ai/ha): 100
Pre-emerge Herbicidal Activity IPOHE (phytotoxicity rating, scale 0-100) ([4]; 63 g ai/ha): 40
Pre-emerge Herbicidal Activity IPOHE (phytotoxicity rating, scale 0-100) ([4]; 250 g ai/ha): 100
Pre-emerge Herbicidal Activity SORHA (phytotoxicity rating, scale 0-100) ([5]; 63 g ai/ha): 30
Pre-emerge Herbicidal Activity SORHA (phytotoxicity rating, scale 0-100) ([5]; 250 g ai/ha): 70
Pre-emerge Herbicidal Activity CHEAL (phytotoxicity rating, scale 0-100) ([6]; 63 g ai/ha): 100
Pre-emerge Herbicidal Activity CHEAL (phytotoxicity rating, scale 0-100) ([6]; 250 g ai/ha): 100
Pre-emerge Herbicidal Activity DIGSA (phytotoxicity rating, scale 0-100) ([7]; 63 g ai/ha): 50
Pre-emerge Herbicidal Activity DIGSA (phytotoxicity rating, scale 0-100) ([7]; 250 g ai/ha): 90
Pre-emerge Herbicidal Activity CASOB (phytotoxicity rating, scale 0-100) ([8]; 63 g ai/ha): 100
Pre-emerge Herbicidal Activity CASOB (phytotoxicity rating, scale 0-100) ([8]; 250 g ai/ha): 100
Pre-emerge Herbicidal Activity ABUTH (phytotoxicity rating, scale 0-100) ([9]; 63 g ai/ha): 100
Pre-emerge Herbicidal Activity ABUTH (phytotoxicity rating, scale 0-100) ([9]; 250 g ai/ha): 100
Pre-emerge crop damage CORN (phytotoxicity rating, scale 0-100) ([10]; 63 g ai/ha): 15
Pre-emerge crop damage CORN (phytotoxicity rating, scale 0-100) ([10]; 250 g ai/ha): 65
Pre-emerge crop damage RICE (phytotoxicity rating, scale 0-100) ([11]; 63 g ai/ha): 60
Pre-emerge crop damage RICE (phytotoxicity rating, scale 0-100) ([11]; 250 g ai/ha): 70
Post-emerge Herbicidal Activity ECHCG ([12]; 63 g ai/ha): 30
Post-emerge Herbicidal Activity ECHCG ([12]; 250 g ai/ha): 80
Post-emerge Herbicidal Activity SETVI ([13]; 63 g ai/ha): 0
Post-emerge Herbicidal Activity SETVI ([13]; 250 g ai/ha): 60
Post-emerge Herbicidal Activity IPOHE ([14]; 63 g ai/ha): 100
Post-emerge Herbicidal Activity IPOHE ([14]; 250 g ai/ha): 100
Post-emerge Herbicidal Activity SORHA ([15]; 63 g ai/ha): 10
Post-emerge Herbicidal Activity SORHA ([15]; 250 g ai/ha): 70
Post-emerge Herbicidal Activity CHEAL ([16]; 63 g ai/ha): 90
Post-emerge Herbicidal Activity CHEAL ([16]; 250 g ai/ha): 100
Post-emerge Herbicidal Activity DIGSA ([17]; 63 g ai/ha): 10
Post-emerge Herbicidal Activity DIGSA ([17]; 250 g ai/ha): 20
Post-emerge Herbicidal Activity AMARE ([18]; 63 g ai/ha): 90
Post-emerge Herbicidal Activity AMARE ([18]; 250 g ai/ha): 100
Post-emerge Herbicidal Activity CASOB ([19]; 63 g ai/ha): 0
Post-emerge Herbicidal Activity CASOB ([19]; 250 g ai/ha): 50
Post-emerge Herbicidal Activity ABUTH ([20]; 63 g ai/ha): 100
Post-emerge Herbicidal Activity ABUTH ([20]; 250 g ai/ha): 100
Post-emerge Herbicidal Activity CORN (crop damage) ([21]; 63 g ai/ha): 10
Post-emerge Herbicidal Activity CORN (crop damage) ([21]; 250 g ai/ha): 40
Post-emerge Herbicidal Activity RICE (crop damage) ([22]; 63 g ai/ha): 20
Post-emerge Herbicidal Activity RICE (crop damage) ([22]; 250 g ai/ha): 50

From patent US6355799B1, “Substituted benzene compounds, process for their preparation, and herbicidal and defoliant compositions containing them” (ISK Americas Incorporated, priority 1997, dated 2002)
